In patent publication US20020042403A1, “Use of vitamin D analogs to treat conditions related to increased oxidative stress” (priority 1998, published 2002):

Tests used:
keratinocytes = assay: cis-parinaric acid (PnA) assay of AMVN-induced phospholipid oxidation in live keratinocytes; assay type: cell-based, human
Procedure: Comparison of the Antioxidant Potency of ST-630 with that of Calcitriol and Alpha-Tocopherol in Live Keratinocytes Using the Cis-parinaric Acid (PnA) assay […].
Keratinocytes were incubated in the presence of a complex of PnA with human serum albumin (PnA-HSA) for up to […] to incorporate PnA into cellular phospholipids. […] The incorporation of PnA in the various phospholipids was differential and the amount of PnA incorporated was in the following order: PC>PEA>PI>PS>SPH>DPG. The constituent phospholipids were separated from the total lipid extract by HPLC. Major fluorescence peaks were identified using authentic phospholipids standards including DPG, PI, PEA, PS, PC and SPH.
To determine the effects of ST-630 on keratinocytes subjected to oxidative stress cell suspensions labeled with PnA were incubated with or without ST-630 (5-500 nM) in the dark at 37° C. for 1 hr in the presence of […] AMVN. Based on the known rate constant of AMVN decomposition under the experimental conditions employed (Niki, 1990), at 0.5 mM it can be estimated that 2.4 nanomoles (nmoles) of peroxyl radicals are generated per hour at 37° C. in each incubation containing 10^6 cells. Incubation of keratinocytes with AMVN for 1 hr induced significant oxidation of all the detected phospholipids.

cultured keratinocytes = details: cited from earlier work
human keratinocyte cells = assay: AMVN-induced hypodiploidy (apoptosis) in keratinocytes, flow cytometric analysis; assay type: cell-based
Text: Nucleus/DNA of cells treated with chemical or physical agents undergo changes primarily by the activation of the nucleases, before they lose the membrane integrity. Such changes are due to the loss of DNA or fragmentation of the nucleus into apoptotic bodies. Flow cytomeric analysis of a population of cells can reveal the appearance of a hypodiploid population and changes in the stages of the cell cycle.
AMVN induces changes in the cell cycle pattern and it can be modified either by calcitriol or ST-630. […] AMVN-derived peroxyl radicals primarily cause damage to the DNA and repair of DNA is accomplished during the G1 or G2 block. When keratinocytes were treated with various concentrations of ST-630 or calcitriol, and subsequently exposed to AMVN there was a considerable reduction in the level of hypodiploid cells. This effect was concentration-dependent. […] The highest concentration of calcitriol used, i.e. 500 nM reduced the hypodiploidy by 60%. […] 10 nM of ST-630 blocked the hypodiploidy by 60%.

Propionibacterium acnes = assay: antibacterial disc inhibition zone test; assay type: cell-based; details: 6 mm filter paper discs, 48 hr at 36° C.
Procedure: Propionibacterium acnes, the target of inflammation in acne, was tested for its sensitivity to ST-630 and calcitriol using the inhibition method standardly employed for assessment of antibiotic efficiency. The strain (lyophilized) P. acnes (batch # 96-09SV) was received from the US type culture collection (Rockville, Md.). It was revitalized in 0.5 ml freshly boiled (10 min) reinforced Clostridial medium. ST-630 or calcitriol dissolved in 5.0 μl DMSO were applied onto the top of sterilized discs made of filter paper (6 mm). Erythromycin (15 μg) and DMSO (5.0 μl) were used as controls (positive and negative, respectively). The plates were incubated for 48 hr at 36° C. and the diameter of the inhibition zone was measured. […] The antibacterial activity of ST-630 at concentration 12.8 μg was about 2.7-fold lower than that of 15 μg of erythromycin. We conclude that ST-630 (but not calcitriol) exerts a significant inhibitory antibacterial activity towards P. acnes.

human neutrophils = assay: chemotaxis in human neutrophils, multiwell chamber with FLPM; assay type: cell-based; details: higher concentrations of FLPM as chemotactic factor
Text: For chemotaxis assay, chemotactic solution (medium 199 containing 0.5% BSA and FLPM) and multiwell chamber were used. The numbers of migrated neutrophils for different concentrations of FLPM (as a chemotactic factor) were within the usually observable range (see Table 4 in the Appendix). […] Despite this, the data are consistent with the effects of these compounds on superoxide release. Both ST-630 and calcitriol appear to be inhibitory when higher concentrations of FLPM were used.

[1] = tested on: human neutrophils (PMNLs); assay: oxidative burst (superoxide production, cytochrome c reduction) in human neutrophils; assay type: cell-based
Text: This example provides studies of oxidative burst and chemotaxis in human neutrophils. Oxidative (respiratory) burst in polymorphonuclear nuetrophils (PMN) is a major mechanism of defense against bacterial and/or viral pathogens. Oxidative burst is a complex process resulting in the generation by PMN of a huge amount of oxygen free radicals (superoxide and hydroxyl radicals) and chemically reactive substances—hydrogen peroxide and hypochlorite. The mechanism of cell activation involves such steps as increase of intracellular Ca^2+ concentration upon the interaction of activator, increasing the activity of protein kinase C, activation of NADPH oxidase with subsequent generation of superoxide radicals and hydrogen peroxide in the phagosomes and in the surrounding area, releasing and activation of myeloperoxidase and production of hypochlorite (HOCL).
The respiratory burst in PMNLs (isolated from fresh heparinized whole blood by dextran sedimentation) was initiated by the addition of N-formylmethionyl-leucyl-phenylalanine-methylester, FLPM (10^−7M), phorbol12,13-miristate, acetate, PMA (0.01 μg/ml) and opsonized zimozan (1.0 mg/ml). Superoxide production was assayed by the superoxide dismutase-22 inhibitable reduction of cytochrome c. […]

[2] = tested on: cultured human keratinocytes; assay: 3H-thymidine incorporation into keratinocyte DNA (proliferation); assay type: cell-based; details: 42 h and 66 h after initial dosing with 10^-8 M
Procedure: Two experimental approaches were performed to assess the effect of ST-630 on the proliferation of cultured human keratinocytes. The first one was the ^3H-thymidine incorporation experiments that involved the use of a radiolabeled nucleotide which is specifically found in newly synthesized DNA molecules only. The second approach used in this study was the basal cell count. Although it is tedious, the second method is a more definitive way to determine cellular proliferation. Our results clearly establish the potency and the long-lasting effects of ST-630 in inhibiting cellular proliferation as determined by ^3H-thymidine and basal cell count.

C=C1/C(=C\C=C2/CCC[C@]3(C)[C@@H]([C@H](C)CCCC(C)(C)O)CC[C@@H]23)C[C@@H](O)C[C@@H]1O [calcitriol, reference compound]
concentration giving maximum antioxidant effectiveness/protection against AMVN-induced oxidation (keratinocytes; PnA-labeled keratinocytes, 0.5 mM AMVN, 1 hr, 37° C.): 25 to 50 nM | concentration-dependency of the protective effect (keratinocytes; PnA-labeled keratinocytes, AMVN): two-phase protection pattern | metabolism in cultured keratinocytes (cultured keratinocytes): rapidly metabolized | reduction of AMVN-induced hypodiploidy (human keratinocyte cells; 10 nM): 40% | effect on cell cycle (human keratinocyte cells; 10 nM, then AMVN): blocked the cells at the G2/M phase | reduction of AMVN-induced hypodiploidy (human keratinocyte cells; 500 nM): 60% | antibacterial activity (inhibition zone) (Propionibacterium acnes): Neither DMSO nor calcitriol exerted any antibacterial activity | effect on chemotaxis (human neutrophils): inhibitory | superoxide release with known stimulants (FLPM, PMA, opsonized zymosan) [1]: act to prime for supertoxide release | inhibitory (antiproliferative) activity with time [2]: diminished with time

Cc1c(C)c2c(c(C)c1O)CC[C@@](C)(CCC[C@H](C)CCC[C@H](C)CCCC(C)C)O2 [vitamin E, Alpha-Tocopherol, reference compound]
antioxidant action compared with the other compounds (keratinocytes; concentrations 250 and 500 nm): comparable to that of ST-630
